Legend:
[1] = system: human dermal fibroblasts; settings: cited from earlier work
[2] = system: rat liver M cells; settings: concentration in media as low as 1 ng/ml; cited from earlier work
[3] = system: human lung fibroblasts; settings: 100 ng/mL; cited from earlier work
[4] = system: corneal fibroblasts; experiment: Media additive screening (Phase 1) and full factorial DOE (Phase 2), collagen production by SirCol; type: cell-based; settings: Phase 1 screening
Method: Based on a weighted scoring (Table 13), the seven best additives were selected and were added to the fibroblast media separately in a Phase 1 screening study using concentrations presented in Table 14. […] For this study a three-level design was chosen in order to determine a maxima. This phase of the experiment determined which additives have a statistically significant effect on collagen production and what concentration of each additive has the highest positive impact.
The seven additives also allowed for minimizing the number of plates and maximizing the number of used wells. […] In phase 1 of testing 7 media additives were tested at 3 concentrations with a sample size of 4 for each condition. Additives and concentrations used were determined by the prior research described above. Collagen amount per well was quantified, but cell counts were not performed. Collagen produced per cell was estimated based on the number of cells expected per well. Some groups fell below the SirCol standard curve range of 1-50 ug. These values were represented as 1.00 ug/100 uL and were assigned the lowest rating for efficacy in the resulting trade study.
For the three additives that advanced the highest ranking of each additive was used as the DOE centerpoint. Due to a lack of available stock, ACE low was substituted for ACE medium.
In phase 2 the top performing media additives were fed into a full factorial DOE. The concentrations used were determined by a variety of factors including a trade study, remaining laboratory supplies, and finally the lower cost associated with a lower concentration in a near-tie situation. A near-tie situation was defined by the group as concentrations of the same chemical that scored within 1% total score. […] For acetaldehyde, due to a stock issue the low concentration at 0.2 mM was chosen. For the 100% concentration limit needed to complete construction of the full-factorial DOE plan, each of these values was doubled, which corresponds to the medium conditions from phase 1.

[5] = system: cell types including bovine, mouse, and human; settings: cited from earlier work
[6] = system: fibroblast migration; settings: dose-dependent, 0.25 and 0.5 mM; cited from earlier work
[7] = system: any cell type; settings: cited from earlier work
[8] = system: baboon liver myofibroblasts; settings: cited from earlier work
[9] = system: collagen production; settings: cited from earlier work
[10] = system: myofibroblasts and fibroblasts; settings: 50 mM; cited from earlier work
[11] = system: human chondrocytes; settings: cited from earlier work
[12] = added to the culture media in concentrations up to 300 μM

O=C(O)C1CCC=N1 (stereo not shown) [pyrroline-5-carboxylate]
optimal concentration for collagen production [1]: 1 mM | time at which the effect on collagen production can be seen [1]: 6 h | maximum increase of collagen production, % of the control value ([1]; optimal concentration of 1 mM): 260%

TGF-β1: Transforming Growth Factor Beta 1
collagen production versus control [2]: unquantified increase

TGF-β
concentration for maximum efficacy [1]: 12.5 ng/mL

IGF-1: Insulin-like Growth Factor 1
correlation between level in media and production of collagen ([1]; manipulation of rat serum applied to media): positive correlation | maximum increase of collagen production from control [3]: 300%

O=C1O[C@H]([C@@H](O)CO)C(O)=C1O [ASC, Ascorbic acid]
collagen production versus control, single additive [4]: higher collagen production than the control | production of collagen [5]: beneficial

N#CCCN [BAPN, β-aminopropionitrile]
collagen production versus control, single additive [4]: higher collagen production than the control | fibroblast migration [6]: inhibited fibroblast migration | adverse effects on cell viability, collagen synthesis, or non collagen protein synthesis [7]: No research with any cell type has shown adverse effects

O=C(O)[C@@H]1CCCN1 [Proline]
maximum increase in collagen production compared to the control value ([1]; 5-10 mM in media): 200%

NC(=O)CC[C@H](N)C(=O)O [glutamine]
maximum benefit for the production of collagen, % of the control ([1]; at 250 μM): ~300%

CC(O)C(=O)O (stereo not shown) [Lactate]
collagen production ([8]; 5 mM added to media): statistically significant increase | collagen production ([1]; 40 mM): decrease collagen production

Cn1c(=O)c2c(ncn2C)n(C)c1=O [caffeine]
effect on collagen production ([9]; concentrations in media as little as 1-5 mM): negative effect

N[C@@H](CCC(=O)O)C(=O)O [Glutamate]
increase of collagen production from the control ([1]; glutamate-supplemented media): 400%

CCO [ethanol]
effect on the level of collagen production [10]: no direct effect

CC=O [ACE, Acetaldehyde]
collagen production versus control, single additive [4]: higher collagen production than the control | levels of collagen produced [8, 12]: increase the levels of collagen | levels of collagen produced [1, 12]: increase the levels of collagen

IL-1p: Interleukin type 1p as printed, glycoprotein associated with immune response
lowest concentration needed for an observable, positive effect on collagen production [11]: 2.5 µM

B1: IL-10: Interleukin, glycoprotein associated with immune response (protein, UniProt P22301 19-178, looked up)
Interleukin-10: SPGQGTQSENSCTHFPGNLPNMLRDLRDAFSRVKTFFQMKDQLDNLLLKESLLEDFKGYLGCQALSEMIQFYLEEVMPQAENQDPDIKAHVNSLGENLKTLRLRLRRCHRFLPCENKSKAVEQVKNAFNKLQEKGIYKAMSEFDIFINYIEAYMTMKIRN
effect on level of collagen production [9]: reduce the level of collagen production

B2: IL-4: Interleukin, glycoprotein associated with immune response (protein, UniProt P05112 25-153, looked up)
Interleukin-4: HKCDITLQEIIKTLNSLTEQKTLCTELTVTDIFAASKNTTEKETFCRAATVLRQFYSHHEKDTRCLGATAQQFHRHKQLIRFLKRLDRNLWGLAGLNSCPVKEANQSTLENFLERLKTIMREKYSKCSS
maximum positive effect on collagen production, increase from control [9]: 250%

Reference: patent publication US20240043818A1, “Engineered Cells for Increased Collagen Production” (Northeastern University, priority 2020, published 2024)
